Results from paper PMC4700033, “Synergistic properties of cellulases from Clostridium cellulovorans in the presence of cellobiose” (AMB Express, 2016).

Columns and labels:
Experiment in all cases: DNS reducing sugar assay on acid-swollen cellulose
Format in all cases: biochemical
ExgS = biological target: T1, ExgS (Clostridium cellulovorans, UniProt D9SS72); conditions: 5 mg/ml cellobiose; 0.5 % acid-swollen cellulose, 20 nmol/ml enzyme alone, 50 mM acetate pH 6.3, 2.5 mM CaCl2, 37 C
T1 construct: gene Clocel_2823; dockerin-bearing cellulosomal subunit
T1 sequence (D9SS72 1-727): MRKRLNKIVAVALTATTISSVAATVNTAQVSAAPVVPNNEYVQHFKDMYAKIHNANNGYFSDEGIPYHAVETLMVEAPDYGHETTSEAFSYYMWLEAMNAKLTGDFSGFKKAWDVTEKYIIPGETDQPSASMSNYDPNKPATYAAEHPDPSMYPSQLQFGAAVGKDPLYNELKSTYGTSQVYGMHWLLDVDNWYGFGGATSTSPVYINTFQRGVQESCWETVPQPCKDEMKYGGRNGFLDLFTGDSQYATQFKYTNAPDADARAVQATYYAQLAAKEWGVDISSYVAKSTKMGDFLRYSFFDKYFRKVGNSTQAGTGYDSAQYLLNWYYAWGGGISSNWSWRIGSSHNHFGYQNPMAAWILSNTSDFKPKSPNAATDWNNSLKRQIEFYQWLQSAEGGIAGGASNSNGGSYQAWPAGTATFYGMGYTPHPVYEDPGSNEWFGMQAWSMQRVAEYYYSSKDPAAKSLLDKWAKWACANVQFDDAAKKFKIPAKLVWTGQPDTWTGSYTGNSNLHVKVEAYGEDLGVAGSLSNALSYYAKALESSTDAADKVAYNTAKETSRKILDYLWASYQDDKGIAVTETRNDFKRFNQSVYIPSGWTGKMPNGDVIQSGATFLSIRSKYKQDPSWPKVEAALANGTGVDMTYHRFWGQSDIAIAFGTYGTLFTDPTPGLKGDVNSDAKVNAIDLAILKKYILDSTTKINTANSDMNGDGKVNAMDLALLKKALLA
Text: DNS reducing sugar assay on acid-swollen cellulose on ExgS

EngK = biological target: T2, EngK (Clostridium cellulovorans, UniProt D9SS70); conditions: 5 mg/ml cellobiose; 0.5 % acid-swollen cellulose, 20 nmol/ml enzyme alone, 50 mM acetate pH 6.3, 2.5 mM CaCl2, 37 C; cellobiose also main product
T2 construct: gene Clocel_2821
T2 sequence (D9SS70 1-892 limits assumed): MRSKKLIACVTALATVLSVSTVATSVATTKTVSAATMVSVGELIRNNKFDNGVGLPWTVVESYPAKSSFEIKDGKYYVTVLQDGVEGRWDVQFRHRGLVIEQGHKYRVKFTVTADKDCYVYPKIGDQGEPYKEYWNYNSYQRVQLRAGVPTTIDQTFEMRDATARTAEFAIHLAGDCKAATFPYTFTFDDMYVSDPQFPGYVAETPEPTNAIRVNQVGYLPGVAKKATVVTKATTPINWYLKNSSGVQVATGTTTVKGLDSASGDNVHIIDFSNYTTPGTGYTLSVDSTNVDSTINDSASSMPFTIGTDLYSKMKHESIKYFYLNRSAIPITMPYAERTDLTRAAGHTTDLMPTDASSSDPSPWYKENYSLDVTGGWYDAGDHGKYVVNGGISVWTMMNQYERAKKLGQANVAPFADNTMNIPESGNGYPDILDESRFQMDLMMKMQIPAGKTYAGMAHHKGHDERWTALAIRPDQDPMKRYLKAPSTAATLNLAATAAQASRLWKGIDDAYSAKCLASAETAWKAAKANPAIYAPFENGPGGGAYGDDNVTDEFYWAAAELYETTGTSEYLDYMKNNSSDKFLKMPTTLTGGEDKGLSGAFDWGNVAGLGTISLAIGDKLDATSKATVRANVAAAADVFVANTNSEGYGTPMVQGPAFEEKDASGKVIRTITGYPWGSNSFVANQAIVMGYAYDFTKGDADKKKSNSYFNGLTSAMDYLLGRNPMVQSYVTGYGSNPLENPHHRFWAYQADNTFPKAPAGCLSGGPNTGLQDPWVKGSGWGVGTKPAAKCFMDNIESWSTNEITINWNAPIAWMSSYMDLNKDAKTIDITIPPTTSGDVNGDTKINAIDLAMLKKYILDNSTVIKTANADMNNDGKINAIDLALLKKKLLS
Text: DNS reducing sugar assay on acid-swollen cellulose on EngK

EngH = biological target: T3, EngH (Clostridium cellulovorans, UniProt O65987); conditions: 5 mg/ml cellobiose; 0.5 % acid-swollen cellulose, 20 nmol/ml enzyme alone, 50 mM acetate pH 6.3, 2.5 mM CaCl2, 37 C
T3 construct: HisTrap purified from supernatant; trigger factor tag removed by HRV-3C protease
T3 sequence (O65987 14-715): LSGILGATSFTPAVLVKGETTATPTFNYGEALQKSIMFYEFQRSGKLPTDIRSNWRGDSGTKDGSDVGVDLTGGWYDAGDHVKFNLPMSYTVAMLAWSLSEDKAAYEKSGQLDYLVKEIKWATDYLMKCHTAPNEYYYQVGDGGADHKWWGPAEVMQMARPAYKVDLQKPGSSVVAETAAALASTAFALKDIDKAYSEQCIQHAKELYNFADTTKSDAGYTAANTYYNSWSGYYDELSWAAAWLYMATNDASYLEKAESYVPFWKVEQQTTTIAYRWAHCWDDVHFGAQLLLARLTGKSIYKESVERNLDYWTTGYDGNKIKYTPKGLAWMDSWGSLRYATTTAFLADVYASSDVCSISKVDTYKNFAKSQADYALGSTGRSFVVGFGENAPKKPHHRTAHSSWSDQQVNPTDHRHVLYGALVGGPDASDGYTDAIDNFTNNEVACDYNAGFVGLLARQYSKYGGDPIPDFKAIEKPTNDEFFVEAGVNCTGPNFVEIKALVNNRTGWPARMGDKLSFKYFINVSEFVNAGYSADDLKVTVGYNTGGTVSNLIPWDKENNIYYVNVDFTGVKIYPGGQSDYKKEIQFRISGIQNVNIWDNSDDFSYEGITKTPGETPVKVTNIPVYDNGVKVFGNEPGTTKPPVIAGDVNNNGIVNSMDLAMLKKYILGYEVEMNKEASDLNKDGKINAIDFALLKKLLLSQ
Text: DNS reducing sugar assay on acid-swollen cellulose on EngH

Inhibition rate (%) (ExgS): 98.5% | Inhibition rate (%) (EngK): 90.1% | Inhibition rate (%) (EngH): 98.7%
Structure (SMILES): OC[C@H]1O[C@@H](O[C@H]2[C@H](O)[C@@H](O)C(O)O[C@@H]2CO)[C@H](O)[C@@H](O)[C@@H]1O (stereo partly drawn) [cellobiose]
